Test [1] deals with peritoneal macrophages from wild-type mice. The test can be described thus: Cytokine production by peritoneal macrophages (ELISA), wild-type. It is filed as cell-based, mouse. To be noted: 5×10^4 cells, presence or absence of 30 U/ml IFN-γ. How it is done: (§1) 2 ml of 4% thioglycollic acid medium (DIFCO) were injected into the intraperitoneals of the wild-type mice, TLR7 knockout mice (TLR7KO), MyD88 knockout mice (MyD88KO) and TLR9 knockout mice (TLR9KO), respectively, three days later, peritoneal exudate cells were isolated from intraperitoneal of each mouse, these cells were cultured in PRMI 1640 medium (GIBCO) added with 10% fatal bovine serum (GIBCO) at 37° C. for two hours, nonadherent cells were […] by washing with Hank's buffered salt solution (HBBS; GIBCO) at iced temperature, and the adherent cells were used as peritoneal macrophages in following experiment. Total RNA (10 μg) obtained from macrophages derived from the wild-type mice (+/Y) and TLR7 knockout mouse (TLR7KO) was electrophoresed, transferred onto a nylon membrane, and hybridized with a part of TLR7 DNA, and this membrane was rehybridized with β-actin probe. It was examined by the Northern blotting. From the results shown in FIG. 3, the expression of TLR7mRNA could not be found in TLR7 knockout mice.
(§2) In addition, the measurement of cytokine generated from peritoneal macrophages was executed as follows; […] peritoneal macrophages of 2×10^5 well or 5×10^4 well were cultured in 96-well plate respectively, and after stimulated with the above-mentioned reagents for 24 h, concentration of TNF-α, IL-12p40, IL-6 and/or IFN-α were measured by ELISA according to the manual.
(§3) Before examining the reactivity of TLR7 knockout mice to imiquimod and R-848 which are imidazoquinoline group compound, firstly imiquimod or R-848 were administered to BALB/c mice (wild-type) orally at the predetermined concentration, respectively, the concentration of IFN-α, TNF-α and IL-12 in serum were measured after two hours. […] The data is shown as a mean value+/−S.D. (N=3). Similarly, the ability of these compounds to activate immune cells via TLR was examined using imiquimod or R-848 respectively. The peritoneal macrophages (5×10^4 cells) from wild-type mice and MyD88 knockout mice prepared in example 2, were stimulated by imiquimod or R-848, in the presence or absence of 30 U/ml of IFN-γ, and the concentration of TNF-α and IL-12 produced by peritoneal macrophages were measured by ELISA. […] The data is shown as a mean value+/−S.D. (N=3).

The subject of test [2] is peritoneal macrophages from MyD88 knockout mice. Put plainly: Cytokine production by peritoneal macrophages (ELISA), MyD88 knockout. The class given is cell-based, mouse. To be noted: 5×10^4 cells, presence or absence of 30 U/ml IFN-γ. As to the method: as §1, §2, §3
A general note: An ELISA detects its analyte on a solid surface through an enzyme-linked reagent.

The subject of test [3] is BMDC derived from wild-type mice. Put plainly: Surface CD40, CD80, CD86 expression on bone marrow dendritic cells (flow cytometry), wild-type. The class given is cell-based, mouse. To be noted: stimulated 24 h. How it is done: (§4) The reactivity to R-848 in dendritic cells derived from bone marrow (BMDC) derived from TLR7 knockout mice (TLR7KO) and the wild-type mice was examined. The bone marrow cells obtained from TLR7 knockout mice and wild-type mice were cultured for six days in RPMI-1640 medium supplemented with 10% fatal bovine serum and 10 ng/ml of GM-CSF (mouse granulocyte/macrophage colony stimulating factor). The obtained mouse undifferentiated dendritic cells were stimulated with R-848 or CpGDNA for 24 h, the cells were stained with biotinylated antibody to CD40, CD80 and CD86, and phycoerythrin (PE)-associated streptavidin was detected, which was analyzed by automated-cell analysing system (FACSCalibur). The results of examination of the expression of the molecules of CD40, CD80 and CD86 onto the surface of cells by flow cytometry are shown in FIG. 11. Similar to the case with CpGDNA, when BMDC derived from wild-type mice was stimulated with R-848, upregulation of CD40, CD80 and CD86 expression was induced. On the contrary, when BMDC derived from TLR7 knockout mice (TLR7KO) was stimulated with R-848, the expression of these molecules on cell surface was not enhanced.
(Flow cytometry measures light scatter and fluorescence of single cells or particles in a stream.)

The test system of test [4] is BMDC derived from TLR7 knockout mice (TLR7KO). The test can be described thus: Surface CD40, CD80, CD86 expression on bone marrow dendritic cells (flow cytometry), TLR7 knockout. The class given is cell-based, mouse. The settings on record: stimulated 24 h. As to the method: as §4
Test [5] has as its system macrophages derived from TLR7 knockout mice. The test can be described thus: Intracellular signalling (NF-κB EMSA, JNK and IRAK in vitro kinase assay) in macrophages, TLR7 knockout. To be noted: TLR7KO macrophages, 100 nM R-848. The class given is cell-based, mouse. How it is done:
Next, the activation of intracellular signaling cascade to an antiviral immune-modulator was examined. Peritoneal macrophages (2×10^6 cells) from TLR7 knockout mice (TLR7KO) and wild-type mice respectively stimulated with thioglycollic acid, were stimulated with 100 nM of R-848 or 1.0 μM of CpGDNA 1668 (CpG) for a certain period of time, nucleoprotein was extracted, the extract obtained with the specific probe including NF-κB associated-site was incubated, electrophoresed, visualized by autoradiography, and NF-κB activation was examined as DNA-associated protein by electrophoretic mobility shift assay (EMSA). In FIG. 12, an arrow indicates induced NF-κB complexes, and an arrow head indicates a free probe.
The functional role of TLR7 in transactivation of NF-κB reporter gene induced by R-848 was examined. HEK293 cells were transiently cotransfected with TLR7 expression plasmids derived from human, and luciferase activity was measured before and after R-848 stimulation. The peritoneal macrophages derived from TLR7 knockout mice (TLR7KO) and wild-type mice stimulated with thioglycollic acid were stimulated with 100 nm of R-848 or 1.0 μM of phosphothioate modified CpGDNA 1668 (CpG), all cell lysate were prepared, immunoprecipated with anti-JNK antibody, and JNK activity was examined by In Vitro Kinase Assay using GST-c-Jun fusion protein as a substrate. The same lysate was blotted with anti-JNK antibody. Moreover, the lysate was immunoprecipated with anti-IRAK, and kinase activity of IRAK was examined by In Vitro Kinase Assay. The same lysate was blotted with anti-IRAK antibody. […] It is important to activate TLR7-MyD88-dependent signal pathway for the effect of imidazoquinoline in vivo.

In test [6] the test system is TLR7 knockout mice. The test can be described thus: Serum cytokines after intraperitoneal R-848, TLR7 knockout mice. The class given is in vivo, mouse. To be noted: 50 nmol intraperitoneally, ELISA. How it is done: It was examined in vivo whether TLR7 was involved in a response to R-848. The wild-type mice, MyD88 knockout mice or TLR7 knockout mice were injected intraperitoneally with 50 nmol of R-848, the sera were harvested after a predetermined period of time, and the concentration of IFN-α, TNF-α and IL12p40 in sera was determined by ELISA. […] On the contrary, the increment of these cytokines was not observed in TLR7 knockout mice.

Test [7] has as its system genital herpes. To be noted: actual treatment; cited from earlier work.

Molecules are shown by their SMILES.

With `CCOCc1nc2c(N)nc3ccccc3c2n1CC(C)(C)O` [R-848, resiquimod], in test [1], the “IL-12 produced by peritoneal macrophages” value is reported as “in large amount” and the “TNF-α produced by peritoneal macrophages” value is “in large amount”. Moreover, in test [2], the “IL-12 produced by peritoneal macrophages” value is given as “hardly produced any cytokines” and the “TNF-α produced by peritoneal macrophages” value is listed as “hardly produced any cytokines”. In test [3], the “CD40 expression on cell surface” value was “upregulation”, the “CD80 expression on cell surface” value was “upregulation” and the “CD86 expression on cell surface” value is “upregulation”. In addition, in test [4], the “CD40 expression on cell surface” value is on record as “not enhanced”, the “CD80 expression on cell surface” value was “not enhanced” and the “CD86 expression on cell surface” value is “not enhanced”. In addition, in test [5], the “activation of c-Jun N terminal kinase (JNK)” value was “completely destructed”, the “enhanced DNA avidity of NF-κB transcription (EMSA)” value is reported as “completely destructed” and the “phosphorylation of IRAK” value is on record as “completely destructed”. Moreover, in test [6], the “increment of IFN-α in sera” value was “not observed”, the “increment of IL12p40 in sera” value is reported as “not observed” and the “increment of TNF-α in sera” value was “not observed”. Also, the treating genital herpes entry in test [7] was “effective”.

The values are drawn from patent publication US7608750B2, “Nonhuman model animal unresponsive to immunopotentiating synthetic compound” (Japan Science and Technology Agency, priority 2001, dated 2009).
